According to the NIST ThermoML archive (doi:10.1016/j.jct.2016.06.012):
± gives the expanded uncertainty stated by the source.

Assay: xn = mol fraction of the nth substance listed
Conditions: 100 kPa, Liquid; for viscosity: Capillary tube (Ostwald / Ubbelohde) method; for mass density: Vibrating tube method

CCn1cc[n+](C)c1C.O=S(=O)([N-]S(=O)(=O)C(F)(F)F)C(F)(F)F + O=C1CCCO1
Conditions | mass density [kg/m3] | viscosity [mPa·s]
293.15 K, x1 = 0.0493 | 1186.33 ± 9.6 | 2.39 ± 0.05
293.15 K, x1 = 0.1001 | 1232.87 ± 9.9 | 3.16 ± 0.07
293.15 K, x1 = 0.1526 | 1271.98 ± 10 | 4.27 ± 0.1
293.15 K, x1 = 0.2001 | 1301.42 ± 10 | 5.28 ± 0.12
293.15 K, x1 = 0.3001 | 1350.26 ± 11 | 8.11 ± 0.18
293.15 K, x1 = 0.4013 | 1387.19 ± 11 | 12.59 ± 0.28
293.15 K, x1 = 0.5004 | 1415.28 ± 11 | 19.41 ± 0.43
293.15 K, x1 = 0.5995 | 1437.76 ± 12 | 29.23 ± 0.64
293.15 K, x1 = 0.6929 | 1455.24 ± 12 | 40.61 ± 0.88
293.15 K, x1 = 0.814 | 1473.91 ± 12 | 57.8 ± 1.2
293.15 K, x1 = 0.9001 | 1485.09 ± 12 | 71.36 ± 1.6
293.15 K, x1 = 1 | 1496.32 ± 12 | 89.27 ± 2
298.15 K, x1 = 0.0493 | 1181.34 ± 9.6 | 2.2 ± 0.05
298.15 K, x1 = 0.1001 | 1227.92 ± 9.9 | 2.88 ± 0.07
298.15 K, x1 = 0.1526 | 1267.02 ± 10 | 3.89 ± 0.09
298.15 K, x1 = 0.2001 | 1296.47 ± 10 | 4.75 ± 0.11
298.15 K, x1 = 0.3001 | 1345.33 ± 11 | 7.21 ± 0.16
298.15 K, x1 = 0.4013 | 1382.26 ± 11 | 10.79 ± 0.24
298.15 K, x1 = 0.5004 | 1410.36 ± 11 | 16.23 ± 0.35
298.15 K, x1 = 0.5995 | 1432.85 ± 11 | 23.73 ± 0.51
298.15 K, x1 = 0.6929 | 1450.35 ± 12 | 32.36 ± 0.7
298.15 K, x1 = 0.814 | 1469.03 ± 12 | 45.73 ± 0.98
298.15 K, x1 = 0.9001 | 1480.21 ± 12 | 56.03 ± 1.2
298.15 K, x1 = 1 | 1491.47 ± 12 | 70.77 ± 1.5
303.15 K, x1 = 0.0493 | 1176.42 ± 9.5 | 2.02 ± 0.05
303.15 K, x1 = 0.1001 | 1222.97 ± 9.9 | 2.64 ± 0.06
303.15 K, x1 = 0.1526 | 1262.07 ± 10 | 3.55 ± 0.08
303.15 K, x1 = 0.2001 | 1291.53 ± 10 | 4.31 ± 0.1
303.15 K, x1 = 0.3001 | 1340.4 ± 11 | 6.49 ± 0.14
303.15 K, x1 = 0.4013 | 1377.35 ± 11 | 9.66 ± 0.21
303.15 K, x1 = 0.5004 | 1405.48 ± 11 | 13.87 ± 0.3
303.15 K, x1 = 0.5995 | 1427.99 ± 11 | 19.69 ± 0.42
303.15 K, x1 = 0.6929 | 1445.51 ± 12 | 26.32 ± 0.57
303.15 K, x1 = 0.814 | 1464.21 ± 12 | 36.61 ± 0.78
303.15 K, x1 = 0.9001 | 1475.4 ± 12 | 45.12 ± 0.96
303.15 K, x1 = 1 | 1486.67 ± 12 | 57.02 ± 1.2
308.15 K, x1 = 0.0493 | 1171.5 ± 9.5 | 1.87 ± 0.04
308.15 K, x1 = 0.1001 | 1218.03 ± 9.8 | 2.42 ± 0.06
308.15 K, x1 = 0.1526 | 1257.12 ± 10 | 3.23 ± 0.07
308.15 K, x1 = 0.2001 | 1286.58 ± 10 | 3.92 ± 0.09
308.15 K, x1 = 0.3001 | 1335.47 ± 11 | 5.84 ± 0.13
308.15 K, x1 = 0.4013 | 1372.45 ± 11 | 8.44 ± 0.18
308.15 K, x1 = 0.5004 | 1400.6 ± 11 | 11.97 ± 0.26
308.15 K, x1 = 0.5995 | 1423.13 ± 11 | 16.7 ± 0.36
308.15 K, x1 = 0.6929 | 1440.66 ± 12 | 21.94 ± 0.47
308.15 K, x1 = 0.814 | 1459.39 ± 12 | 30.04 ± 0.64
308.15 K, x1 = 0.9001 | 1470.6 ± 12 | 36.72 ± 0.78
308.15 K, x1 = 1 | 1481.87 ± 12 | 46.6 ± 0.98
313.15 K, x1 = 0.0493 | 1166.58 ± 9.5 | 1.74 ± 0.04
313.15 K, x1 = 0.1001 | 1213.09 ± 9.8 | 2.24 ± 0.05
313.15 K, x1 = 0.1526 | 1252.18 ± 10 | 2.97 ± 0.07
313.15 K, x1 = 0.2001 | 1281.64 ± 10 | 3.59 ± 0.08
313.15 K, x1 = 0.3001 | 1330.56 ± 11 | 5.24 ± 0.11
313.15 K, x1 = 0.4013 | 1367.56 ± 11 | 7.44 ± 0.16
313.15 K, x1 = 0.5004 | 1395.73 ± 11 | 10.46 ± 0.23
313.15 K, x1 = 0.5995 | 1418.28 ± 11 | 14.19 ± 0.3
313.15 K, x1 = 0.6929 | 1435.84 ± 12 | 18.31 ± 0.39
313.15 K, x1 = 0.814 | 1454.58 ± 12 | 24.98 ± 0.53
313.15 K, x1 = 0.9001 | 1465.81 ± 12 | 30.3 ± 0.65
313.15 K, x1 = 1 | 1477.09 ± 12 | 38.62 ± 0.81
318.15 K, x1 = 0.0493 | 1161.65 ± 9.4 | 1.62 ± 0.04
318.15 K, x1 = 0.1001 | 1208.15 ± 9.8 | 2.07 ± 0.05
318.15 K, x1 = 0.1526 | 1247.24 ± 10 | 2.72 ± 0.06
318.15 K, x1 = 0.2001 | 1276.71 ± 10 | 3.27 ± 0.07
318.15 K, x1 = 0.3001 | 1325.64 ± 11 | 4.7 ± 0.1
318.15 K, x1 = 0.4013 | 1362.67 ± 11 | 6.63 ± 0.14
318.15 K, x1 = 0.5004 | 1390.87 ± 11 | 9.21 ± 0.2
318.15 K, x1 = 0.5995 | 1413.44 ± 11 | 12.26 ± 0.26
318.15 K, x1 = 0.6929 | 1431.02 ± 11 | 15.7 ± 0.34
318.15 K, x1 = 0.814 | 1449.79 ± 12 | 21.08 ± 0.45
318.15 K, x1 = 0.9001 | 1461.03 ± 12 | 25.54 ± 0.54
318.15 K, x1 = 1 | 1472.32 ± 12 | 32.33 ± 0.68
323.15 K, x1 = 0.0493 | 1156.72 ± 9.4 | 1.52 ± 0.03
323.15 K, x1 = 0.1001 | 1203.21 ± 9.7 | 1.9 ± 0.04
323.15 K, x1 = 0.1526 | 1242.31 ± 10 | 2.5 ± 0.06
323.15 K, x1 = 0.2001 | 1271.78 ± 10 | 3.02 ± 0.07
323.15 K, x1 = 0.3001 | 1320.73 ± 11 | 4.29 ± 0.09
323.15 K, x1 = 0.4013 | 1357.79 ± 11 | 6.05 ± 0.13
323.15 K, x1 = 0.5004 | 1386.01 ± 11 | 8.19 ± 0.18
323.15 K, x1 = 0.5995 | 1408.61 ± 11 | 10.68 ± 0.23
323.15 K, x1 = 0.6929 | 1426.21 ± 11 | 13.74 ± 0.29
323.15 K, x1 = 0.814 | 1445.01 ± 12 | 18.23 ± 0.39
323.15 K, x1 = 0.9001 | 1456.26 ± 12 | 21.94 ± 0.47
323.15 K, x1 = 1 | 1467.56 ± 12 | 27.06 ± 0.57
